The values below come from ChEMBL document CHEMBL1144616, “Synthesis and biological evaluation of 7-azaindole derivatives, synthetic cytokinin analogues” (Bioorg Med Chem Lett, 2007).

Assay [1] has as its system HL-60. Put plainly: Antiproliferative activity against human HL60 cells. The class given is functional, cell-based.
Assay [2] concerns HL-60. As to the kind of experiment: Proapoptotic effect in human HL60 cells at 500 uM. It is filed as functional, cell-based.
The test system of assay [3] is HL-60. As to the kind of experiment: Proapoptotic effect in human HL60 cells at 10 uM. It is filed as functional, cell-based.
For assay [4], the system named is HL-60. As to the kind of experiment: Cell cycle arrest in human HL60 cells assessed as increase in preG1 fraction relative to control. The class given is functional.

Molecules are shown by their SMILES. pIC50: −log10 of the molar value. The source made the active and inactive calls. The calls are words filed in the database; no cut-off is given here.

With `c1ccc(CNc2ncnc3[nH]cnc23)cc1` [6-BENZYLAMINOPURINE], the pIC50 with HL-60 [1] is below 4.00.
On to `Cn1ccc2c(N3CCN(c4ccccc4)CC3)ccnc21`, for which the outcome in the assay on HL-60 [2] was Active. The pIC50 with HL-60 [1] is below 4.00.
On the same counts, the results for `Cn1ccc2c(NCCc3ccccc3)ccnc21` are “Active” and below 4.00.
In the same order, the values of `Cn1ccc2c(NCc3ccccc3)ccnc21` are “Active” and below 4.00.
In the case of `c1coc(CNc2ncnc3[nH]cnc23)c1` [KINETIN], the pIC50 in the assay on HL-60 [1] is 4.66.
With `Cn1ccc2c(Nc3ccccc3)ccnc21`, the outcome in the assay on HL-60 [2] was Active. In the assay with HL-60 [1], this compound had a pIC50 below 4.00.
With `c1ccc(CNc2ccnc3[nH]ccc23)cc1`, in the assay with HL-60 [1], the pIC50 was 4.90. Moreover, in the assay with HL-60 [3], the result was Active.
On the same counts, the results for `c1ccc(CCNc2ccnc3[nH]ccc23)cc1` are 4.63 and “Active”.
`c1ccc(Nc2ccnc3[nH]ccc23)cc1` showed a pIC50 in the assay on HL-60 [1] of 4.63. Also, the Activity with HL-60 [4] is 39.9%. In addition, the outcome in the assay with HL-60 [3] was Active.
`c1ccc(N2CCN(c3ccnc4[nH]ccc34)CC2)cc1` showed a pIC50 in the assay with HL-60 [1] of 4.63. In addition, the result in the assay with HL-60 [3] was Active.

The term pIC50 denotes −log10 of the IC50, conventionally taken in molar units. A high value points to a small IC50.
